Values after ≈ are worked out from the molar mass of the structure shown. Read-outs that look alike come from different tables or passages of the source.
Columns and labels:
[1] = Stability test of the crystal form A in different solvents (suspension 2 days, crystal form test); format: physicochemical; conditions: for Result (crystal form): 20~30° C., 2 days
[2] = tested on: Escherichia coli ATCC 25922; assay: Spontaneous drug resistance mutation rate (FOR); format: cell-based; conditions: for Drug resistance frequency (24 h) / Drug resistance frequency (48 h) / Drug resistance frequency (72 h): selected total colony count 2.60E+08 CFU
Procedure: Escherichia coli ATCC 25922 was used to carry out a micro-liquid dilution method according to the Institute of Clinical and Laboratory Standard (CLSI) requirements, the colony for selection with a total colony count of 2.60E+08CFU in Colony-Forming Units (CFU) was selected, […], 4, 8, 16, 32-fold of minimum inhibitory concentration (MIC), and the drug resistance frequency was calculated.

[3] = Solid stability study of the crystal form A (high temperature, high humidity, light; XRPD, appearance, content, related substances); format: physicochemical
[4] = Exploration of other crystal forms by changing crystallization conditions; format: physicochemical
Excerpt: Purpose: Explore obtaining other crystal forms by changing crystallization conditions.

[5] = tested on: Escherichia coli ATCC BAA-2523(OXA-48); assay: Antibacterial activity MIC, micro-liquid dilution method (CLSI); format: cell-based; conditions: ATCCBAA2523, E. coli ATCC BAA-2523 Class D (OXA-48)
Excerpt: (§1) Three strains of Klebsiella pneumonia, ATCC BAA-205 (TEM-1/SHV-1/SHV-12), ATCC BAA-1705 (KPC-2), ATCC BAA-2470 (NDM-1), Enterobacter cloacae ATCC BAA-1143 (AmpC), two strains of Escherichia coli ATCC BAA-2523(OXA-48), ATCC 25922 were used to determine the minimum inhibitory concentration (MIC) of each of the compounds by a micro-liquid dilution method according to the Institute of Clinical and Laboratory Standard (CLSI) requirements. A 2-fold serial dilution of the compound (final concentration ranging from 0.125 μg/ml to 128 µg/ml) was added to a round-bottom 96-well plate (Catalog #3788, Corning), fresh monoclonal bacteria were selected from an overnight cultured Mueller Hinton II Agar medium plate (MHA, Cat. No. 211438, BD BBL™) and suspended in sterile saline, the concentration was adjusted to 1×10^8 CFU/mL, and then the solution was diluted by using a cation-adjusted Hinton Mueller culture medium Cation-Adjusted Mueller Hinton II Broth (MHB, Catalog #212332, BD BBL™) to a concentration of 5×10^5 CFU/ml, and 100 μl of the solution was added to a round bottom 96-well plate containing the drugs. The plate was placed upside down at 37° C. and the MIC value was read after 20-24 h of incubation, and the lowest drug concentration that inhibited the growth of bacteria was set as MIC. For the results see Table 1. Colony-Forming Units (CFU) refers to the total number of bacterial colonies per unit volume.

[6] = tested on: Enterobacter cloacae ATCC BAA-1143 (AmpC); assay: as above; format: cell-based; conditions: ATCCBAA1143, E. cloacae ATCC BAA-1143 Class C (AmpC)
Excerpt: as §1

[7] = tested on: Escherichia coli ATCC 25922; assay: as above; format: cell-based; conditions: ATCC25922, E. coli ATCC 25922
Excerpt: as §1

[8] = tested on: Klebsiella pneumonia ATCC BAA-2470 (NDM-1); assay: as above; format: cell-based; conditions: Klebsiella pneumoniae, ATCCBAA2470; K. pneumoniae ATCC BAA-2470 Class B (NDM-1)
Excerpt: as §1

[9] = tested on: Klebsiella pneumonia ATCC BAA-1705 (KPC-2); assay: as above; format: cell-based; conditions: Klebsiella pneumoniae, ATCCBAA1705; K. pneumoniae ATCC BAA-1705 Class A (KPC-2)
Excerpt: as §1

[10] = tested on: Klebsiella pneumonia ATCC BAA-205 (TEM-1/SHV-1/SHV-12); assay: as above; format: cell-based; conditions: Klebsiella pneumoniae, ATCCBAA205
Excerpt: as §1

[11] = Pharmacokinetics study in rats in vivo, intravenous administration; parameters: species or system SD male rats; conditions: for AUC(0-t) / C0 / clearance / half-life / Vd: Sprague-Dawley (SD), rat, plasma, SD male rats, dissolved in saline; for AUC(0-t): read-out: AUC0-last Area under plasma concentration-time curve; for C0: read-out: C0 Initial concentration; for clearance: read-out: Cl Clearance rate; for half-life: read-out: T1/2 Half-life period (converted); for Vd: read-out: Vdss Apparent volume of distribution
Procedure: The pharmacokinetic characteristics in rodents after intravenous administration of the compound was tested with standard scheme. Specifically, SD male rats at the age of 7-10 weeks were administered intravenously with the candidate compound in the experiment. The compound was dissolved in salt water to prepare a clear solution. The plasma samples are collected and analyzed by LC-MS/MS, and the pharmacokinetic parameters were calculated.

[12] = Light 10 days (visible light intensity 5000 lux and ultraviolet intensity 90 μw/cm^2, open)
[13] = intravenous injection at 100 mg/kg
[14] = intravenous injection at 300 mg/kg

SMILES: NC[C@@H]1CN(C[C@@H]2[C@H](NC(=O)/C(=N\OC3(C(=O)O)CC3)c3csc(N)n3)C(=O)N2S(=O)O)S(=O)(=O)N1 (stereo in doubt)
- Appearance (2 days) ([1]; Acetonitrile): Suspension
- Appearance (2 days) ([1]; Acetonitrile-water(20:1)): Suspension
- Appearance (2 days) ([1]; Ethanol): Suspension
- Appearance (2 days) ([1]; Ethanol-water(20:1)): Suspension
- Appearance (2 days) ([1]; Ethyl acetate): Suspension
- Appearance (2 days) ([1]; Isopropanol): Suspension
- Appearance (2 days) ([1]; Isopropanol-water(20:1)): Suspension
- Appearance (2 days) ([1]; Tetrahydrofuran): Suspension
- Result (crystal form) ([1]; suspended in Acetonitrile): Crystal form A
- Result (crystal form) ([1]; suspended in Acetonitrile-water(20:1)): Crystal form A
- Result (crystal form) ([1]; suspended in Ethanol): Crystal form A
- Result (crystal form) ([1]; suspended in Ethanol-water(20:1)): Crystal form A
- Result (crystal form) ([1]; suspended in Ethyl acetate): Crystal form A
- Result (crystal form) ([1]; suspended in Isopropanol): Crystal form A
- Result (crystal form) ([1]; suspended in Isopropanol-water(20:1)): Crystal form A
- Result (crystal form) ([1]; suspended in Tetrahydrofuran): Crystal form A
- Stability in solvents (conclusion) ([1]; variety of solvents): stable
- Drug resistance rate (conclusion) ([2]; 2-fold of MIC, E. coli ATCC 25922): lower drug resistance rate
- Drug resistance frequency (24 h) ([2]; 2 × MIC): <3.85E−09
- Drug resistance frequency (48 h) ([2]; 2 × MIC): <3.85E−09
- Drug resistance frequency (72 h) ([2]; 2 × MIC): =3.85E−09
- Drug resistance frequency (24 h) ([2]; 4 × MIC): <3.85E−09
- Drug resistance frequency (48 h) ([2]; 4 × MIC): <3.85E−09
- Drug resistance frequency (72 h) ([2]; 4 × MIC): <3.85E−09
- Drug resistance frequency (24 h) ([2]; 8 × MIC): <3.85E−09
- Drug resistance frequency (48 h) ([2]; 8 × MIC): <3.85E−09
- Drug resistance frequency (72 h) ([2]; 8 × MIC): <3.85E−09
- Drug resistance frequency (24 h) ([2]; 16 × MIC): <3.85E−09
- Drug resistance frequency (48 h) ([2]; 16 × MIC): <3.85E−09
- Drug resistance frequency (72 h) ([2]; 16 × MIC): <3.85E−09
- Drug resistance frequency (24 h) ([2]; 32 × MIC): <3.85E−09
- Drug resistance frequency (48 h) ([2]; 32 × MIC): <3.85E−09
- Drug resistance frequency (72 h) ([2]; 32 × MIC): <3.85E−09
- Purity % ([3]; 0 day): 85.6%
- Total impurities % ([3]; 0 day): 14.4%
- Purity % ([3]; 25° C./75% RH-5 days (open)): 87.4%
- Total impurities % ([3]; 25° C./75% RH-5 days (open)): 12.6%
- Purity % ([3]; 25° C./75% RH-10 days (open)): 85.4%
- Total impurities % ([3]; 25° C./75% RH-10 days (open)): 14.6%
- Related substances and contents (conclusion) ([3]; 60° C., 25° C./75% RH and light conditions): did not change significantly
- Purity % ([3]; 60° C.-5 days (open)): 87.3%
- Total impurities % ([3]; 60° C.-5 days (open)): 12.7%
- Purity % ([3]; 60° C.-10 days (open)): 86.6%
- Total impurities % ([3]; 60° C.-10 days (open)): 13.4%
- Purity % [3, 12]: 86.4%
- Total impurities % [3, 12]: 13.6%
- Purity % ([3]; Light control -10 days): 86.8%
- Total impurities % ([3]; Light control -10 days): 13.2%
- Solid stability (conclusion) ([3]; high temperature, high humidity and light conditions): stable
- Result of crystallization (exploration of other crystal forms) ([4]; EtOH:H2O = 10:1, first dissolved and then cooled down): No crystal was obtained
- Result of crystallization (exploration of other crystal forms) ([4]; EtOH:H2O = 20:1, first dissolved and then cooled down): No crystal was obtained
- Result of crystallization (exploration of other crystal forms) ([4]; IPA:H2O = 10:1, first dissolved and then cooled down): No crystal was obtained
- Result of crystallization (exploration of other crystal forms) ([4]; IPA:H2O = 20:1, first dissolved and then cooled down): No crystal was obtained
- Result of crystallization (exploration of other crystal forms) ([4]; THF:H2O = 10:1, first dissolved at 40° C., cooled to 0~5° C.): No crystal was obtained
- Result of crystallization (exploration of other crystal forms) ([4]; acetone:H2O = 20:1, first dissolved and then cooled down): No crystal was obtained
- Other crystal forms obtained (conclusion) ([4]; dissolved in different aqueous systems and then crystallized): no other crystal forms were obtained
- MIC [5]: 0.125 µg/mL (≈ 0.221 µM)
- MIC [6]: 0.5 µg/mL (≈ 0.882 µM)
- MIC [7]: 0.25 µg/mL (≈ 0.441 µM)
- MIC [8]: 0.25 µg/mL (≈ 0.441 µM)
- MIC [9]: 1 µg/mL (≈ 1.76 µM)
- MIC [10]: 0.5 µg/mL (≈ 0.882 µM)
- AUC(0-t) [11, 13]: 166 µM·h
- C0 [11, 13]: 581 µM
- clearance [11, 13]: 17.2 mL/min/kg
- half-life [11, 13]: 18.7 min
- Vd [11, 13]: 0.378 L/kg
- AUC(0-t) [11, 14]: 467 µM·h
- C0 [11, 14]: 1380 µM
- clearance [11, 14]: 18.4 mL/min/kg
- half-life [11, 14]: 21.7 min
- Vd [11, 14]: 0.463 L/kg
- Exposure versus dose (conclusion) ([11]; rats, intravenous): increases linearly

From patent US20240277677A1, “SALT FORM AND CRYSTAL FORM THEREOF OF SULFONYLUREA RING SUBSTITUTED COMPOUND” (priority 2022, published 2024)
